Literature values, collected in US20060147527A1, “Controlled release preparations comprising tramadol and topiramate” (CILAG AG, priority 2002, published 2006).

Test system: Chung model of post-nerve constriction injury
Conditions: each drug alone

SMILES	maximal effect reached as the dose is escalated [% MPE]
COc1cccc(C2(O)CCCCC2CN(C)C)c1 (single isomer, unassigned) [tramadol, (1R,2R or 1S,2S)-2-[(dimethylamino)methyl]-1-(3-methoxyphenyl)-cyclohexanol]	100
CC1(C)O[C@@H]2[C@@H](CO[C@@]3(COS(N)(=O)=O)OC(C)(C)O[C@@H]23)O1 [topiramate, 2,3:4,5-bis-O-(1-methylethylidene)-β-D-fructopyranose sulfamate]	100
